The text below walks through data of ChEMBL document CHEMBL5726559, “Aryl, heteroaryl, and heterocyclic compounds for treatment of complement mediated disorders” (2017).

Where only a bound is given, the exact number is not on record here.

The test deals with Complement factor D (Homo sapiens, UniProt P00746). The test can be described thus: Factor D Assay: Human factor D (purified from human serum, Complement Technology, Inc.) at 80 nM final concentration is incubated with test compound at various concentrations for 5 minutes at room temperature in 50 mM Tris, 1M NaCl, pH 7.5. A synthetic substrate Z-L-Lys-SBzl and DTNB (Ellman's reagent) are added to final concentrations of 100 μM each. The increase in color is recorded at OD405 nm in a microplate in kinetic mode over 30 minutes with 30 second time points in a spectrofluorimeter. IC50 values are calculated by non-linear regression from the percentage of inhibition of complement factor D activity as a function of test compound concentration.
Complement factor D, sequence (P00746 whole entry): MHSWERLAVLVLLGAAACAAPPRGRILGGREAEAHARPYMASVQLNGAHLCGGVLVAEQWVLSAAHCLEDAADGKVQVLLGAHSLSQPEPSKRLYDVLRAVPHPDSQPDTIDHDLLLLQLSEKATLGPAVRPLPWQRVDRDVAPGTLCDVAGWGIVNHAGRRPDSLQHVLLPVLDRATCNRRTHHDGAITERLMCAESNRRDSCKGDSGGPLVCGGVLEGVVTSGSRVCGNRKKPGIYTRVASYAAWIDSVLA
As a reminder, the IC50 is the concentration at which inhibition is half-maximal. Take `CC(=O)c1cn(CC(=O)N2C[C@H](F)C[C@H]2C(=O)Nc2cccc(Br)n2)c2ccc(-c3ccc(C)nn3)cc12`: the IC50 was under 1000 nM. Turning to `NC(=O)c1nn(CC(=O)N2C[C@H](F)C[C@H]2C(=O)Nc2cccc(Cl)n2)c2ccc(-c3ccnnc3)cc12`, the IC50 is under 1000 nM. With `CC(=O)c1cn(CC(=O)N2C[C@H](F)C[C@H]2C(=O)Nc2cccc(Cl)n2)c2ccc(-c3ccnnc3)cc12` the figure was under 1000 nM.
